Source: patent US7402663B2, “Modified peptide” (University of Ulster, priority 2001, dated 2008)
Where two headings read alike, the source gives them in different places. Numbered stars: 1 amine (or outer) side, 2 acyl side, 3 side chain; on linkers, the order of the positions; unused ones are H or OH. Square brackets hold non-standard residues; d marks the D form. Ends that are not written are not given here. Peptide text beside a SMILES is read from it. X1 = O=C(O)C[C@@H](C(=O)[*:2])N(C[C@H](O)[C@@H](O)[C@H](O)[C@H](O)CO)[*:1]; sY = N[C@@H](Cc1ccc(OS(=O)(=O)O)cc1)C(=O)O

How the values were obtained:
[1] = test system: obese diabetic (ob/ob) mice; experiment: Voluntary food intake in fasted obese diabetic (ob/ob) mice after i.p. injection; assay type: in vivo, mouse; conditions: 100 nmol/kg i.p.
Description: (§1) Mice which had been previously habituated to feeding for 3 h/day were administered a single i.p. injection of saline (0.9% w/v NaCl, 10 ml/kg) in the fasted state (10.00 h) and food was immediately returned following injection. Two days after the saline injection, mice were randomly allocated into groups of 7-8 animals which were administered a single i.p. injection (from 1 to 100 nmol/kg) of either CCK-8, structurally modified CCK-8 analogues and/or other peptide hormones (including, bombesin, leptin and islet amyloid polypeptide (IAPP)). Food intake was carefully monitored at 30 min intervals up to 180 min post injection. In one series of experiments, the ability of CCK-8 and Asp^1-glucitol CCK-8 to inhibit feeding activity was studied in overnight fasted adult obese hyperglycaemic (ob/ob) mice. All animal studies were done in accordance with the Animals (Scientific Procedures) Act 1986.
FIG. 4 Effect of CCK-8, Asp^1-glucitol CCK-8 or saline on voluntary food intake in obese diabetic (ob/ob) mice. Saline or test agents were administered by i.p. injection (100 nmol/kg) to fasted obese diabetic (ob/ob) mice at time 0 immediately before introduction of food. Cumulative food intake was monitored at 30, 60, 90, 120, 150, 180, 210, 240, 270 and 300 min post injection. Values are means±SE of 8 observations. […]

[2] = test system: Swiss TO mice; experiment: Voluntary food intake in fasted Swiss TO mice after i.p. injection; assay type: in vivo, mouse
Description: Effects of CCK-8, Asp^1glucitol CCK-8, pGlu-Gln CCK-8 and other peptides on food intake in mice. Studies to evaluate the relative potencies of control CCK-8, Asp^1-glucitol CCK-8, pGlu-Gln CCK-8 and other peptides involved in regulation of feeding were performed using male Swiss TO mice (n=16) aged 7-12 weeks from a colony originating from the Behavioral and Biomedical Research Unit, University of Ulster. The animals were housed individually in an air-conditioned room at 22±2° C. with 12 h light/12 h dark cycle. Drinking water was supplied ad libitum and standard mouse maintenance diet (Trouw Nutrition, Cheshire, UK) was provided for various times as indicated below. The mice were habituated to a daily feeding period of 3 h/day by progressively reducing the feeding period over a 3 week period. On days 1-6, food was supplied from 10.00 to 20.00 h, days 7-14 from 10.00 to 16.00 h and days 15-21 food was restricted to 10.00 to 13.00 h. Body weight, food and water intake were monitored daily.
as §1
Statistical analysis. Groups of data are presented as means±SE. Statistical evaluation was performed using analysis of variance, least significant difference multiple comparisons test and Student's unpaired t-test as appropriate. Differences were considered to be significant if P<0.05.

[3] = Effects of mouse serum on in vitro degradation of peptides (HPLC); assay type: in vitro ADME
Description: Effects of mouse serum on degradation of CCK-8, Asp^1glucitol CCK-8 and pGlu-Gln CCK-8. Serum (20 μl) from fasted Swiss TO mice was incubated at 37° C. with 10 μg of either native CCK-8, Asp^1-glucitol CCK-8 or pGlu-Gln CCK-8 for periods up to 2 h in a reaction mixture (final vol. 500 μl ) containing 50 mmol/l triethanolamine/HCl buffer pH 7.8. The reaction was stopped by addition of 5 μl of TFA and the final volume adjusted to 1.0 ml using 0.1% (v/v) TFA/water. Samples were centrifuged (13,000 g, 5 min) and the supernatant applied to a C-18 Sep-Pak cartridge (Waters/Millipore) which was previously primed and washed with 0.1% (v/v) TFA/water. After washing with 20 ml 0.12% TFA/water, bound material was released by elution with 2 ml of 80% (v/v) acetonitrile/water and concentrated using a Speed-Vac concentrator (AES 1000, Savant). The volume was adjusted to 1.0 ml with 0.12% (v/v) TFA/water and applied to a (250×4.6 mm) Vydac C-18 column pre-equilibrated with 0.12% (v/v) TFA/water at a flow rate of 1.0 ml/min. The concentration of acetonitrile in the eluting solvent was raised from 0 to 31.5% over 15 min, from 31.5 to 38.5% over 30 min, and from 38.5 to 70% over 5 min, using linear gradients monitoring eluting peaks at 206 nm.

[4] = generally accepted; cited from earlier work

CSCC[C@H](NC(=O)[C@H](Cc1ccc(OS(=O)(=O)O)cc1)NC(=O)[C@H](CC(=O)O)NC[C@H](O)[C@@H](O)[C@H](O)[C@H](O)CO)C(=O)NCC(=O)N[C@@H](Cc1c[nH]c2ccccc12)C(=O)N[C@@H](CCSC)C(=O)N[C@@H](CC(=O)O)C(=O)N[C@@H](Cc1ccccc1)C(N)=O [Asp^1-glucitol CCK-8] (H-[X1][sY]MGWMDF-NH2)
potency compared with native CCK-8 ([1]; FIG. 4): considerable more potent
effect on voluntary food intake ([1]; FIG. 4, up to 300 min): significantly reduce voluntary food intake
potency at reducing food intake compared to equivalent dose of CCK-8 ([2]; 100 nmol/kg i.p., FIG. 3): significantly more potent at reducing food intake at each time point (except at 30 min)
sustained inhibition of cumulative food intake over 3 h compared to saline ([2]; 100 nmol/kg i.p., FIG. 3, up to 180 min): sustained over the 3 h post-treatment feeding period
dose-response effects on food intake compared with CCK-8 ([2]; 1 to 100 nmol/kg i.p., FIGS. 5-7): more prolonged effects at lower doses
% Total CCK-like material [3]: 100%
remaining at 1 h, 20 µg/ml ([3]; Swiss TO, mouse, serum, pH 7.8): 100%
remaining at 2 h, 20 µg/ml ([3]; Swiss TO, mouse, serum, pH 7.8): 100%

glycated tGLP-1: control peptide with a glucitol adduct on the amino-terminus (glucitol-HAEGTFTSDVSSYLEGQAAKEFIAWLVKGR; ends and bridges not checked; UniProt P01275 98-127, looked up)
induction of satiety (control experiment) ([2]; control experiments in this test system): insufficient on its own to induce satiety

CSCC[C@H](NC(=O)[C@H](Cc1ccc(OS(=O)(=O)O)cc1)NC(=O)[C@@H](N)CC(=O)O)C(=O)NCC(=O)N[C@@H](Cc1c[nH]c2ccccc12)C(=O)N[C@@H](CCSC)C(=O)N[C@@H](CC(=O)O)C(=O)N[C@@H](Cc1ccccc1)C(N)=O [CCK-8, Asp^1Tyr^2(SO3H)-Met^3Gly^4Trp^5Met^6Asp^7Phe^8amide]
metabolised at 1 h, 20 µg/ml ([3]; Swiss TO, pH 7.8, after 1 h incubation with mouse serum, read-out: % converted to CCK-8 fragments (HPLC peak area)): 83.1%
metabolised at 2 h, 20 µg/ml ([3]; Swiss TO, pH 7.8, after 2 h incubation with mouse serum, read-out: % converted to CCK-8 fragments (HPLC peak area)): 100%
remaining at 1 h, 20 µg/ml ([3]; Swiss TO, pH 7.8, intact peptide peak, incubation time 1 h, mouse serum, 37° C., read-out: % Total CCK-like material): 16.9%
remaining at 2 h, 20 µg/ml ([3]; Swiss TO, pH 7.8, intact peptide peak, incubation time 2 h, mouse serum, 37° C., read-out: % Total CCK-like material): 0%
% Total CCK-like material ([3]; intact peptide peak, incubation time 0 h, mouse serum, 37° C.): 100%
% Total CCK-like material ([3]; peak CCK-8 fragment (B), incubation time 1 h): 39.3%
% Total CCK-like material ([3]; peak CCK-8 fragment (B), incubation time 2 h): 58.7%
% Total CCK-like material ([3]; peak CCK-8 fragment (C), incubation time 1 h): 43.8%
% Total CCK-like material ([3]; peak CCK-8 fragment (C), incubation time 2 h): 29.5%
% Total CCK-like material ([3]; peak CCK-8 fragment (D), incubation time 2 h): 11.8%
half-life [4]: 1 to 2 min
